The text below walks through data of ChEMBL document CHEMBL3797203, “Plasmin inhibitors with hydrophobic amino acid-based linker between hydantoin moiety and benzimidazole scaffold enhance inhibitory activity” (Bioorg Med Chem Lett, 2016).

One experiment concerns the target Plasminogen (Homo sapiens, UniProt P00747). Kind of experiment: Inhibition of human plasmin using Boc-Val-Leu-Lys-MCA as substrate by fluorescence assay.
Experiment [1] concerns the target Urokinase-type plasminogen activator (Homo sapiens, UniProt P00749). Kind of experiment: Inhibition of human urokinase using Pyr-Gly-Arg-MCA as substrate by fluorescence assay.
The species named for a further experiment is Homo sapiens. Kind of experiment: Selectivity ratio of IC50 for human urokinase to IC50 for human plasmin.

Where only a bound is given, the exact number is not on record here.

Plasminogen, sequence (P00747 97-580 limits assumed): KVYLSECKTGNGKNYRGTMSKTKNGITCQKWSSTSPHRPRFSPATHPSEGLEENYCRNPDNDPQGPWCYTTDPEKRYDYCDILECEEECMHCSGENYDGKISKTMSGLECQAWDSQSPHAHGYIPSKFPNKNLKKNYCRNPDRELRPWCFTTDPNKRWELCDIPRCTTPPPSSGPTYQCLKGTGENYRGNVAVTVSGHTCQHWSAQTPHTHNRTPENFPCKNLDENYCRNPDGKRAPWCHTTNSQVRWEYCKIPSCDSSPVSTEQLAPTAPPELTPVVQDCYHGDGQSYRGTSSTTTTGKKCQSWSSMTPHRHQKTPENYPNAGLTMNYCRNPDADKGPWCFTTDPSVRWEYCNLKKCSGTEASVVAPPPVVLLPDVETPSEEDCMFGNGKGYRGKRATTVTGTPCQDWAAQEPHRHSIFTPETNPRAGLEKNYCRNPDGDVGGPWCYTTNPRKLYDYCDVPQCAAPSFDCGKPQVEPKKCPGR
Plasminogen, sequence (P00747 581-810 limits assumed): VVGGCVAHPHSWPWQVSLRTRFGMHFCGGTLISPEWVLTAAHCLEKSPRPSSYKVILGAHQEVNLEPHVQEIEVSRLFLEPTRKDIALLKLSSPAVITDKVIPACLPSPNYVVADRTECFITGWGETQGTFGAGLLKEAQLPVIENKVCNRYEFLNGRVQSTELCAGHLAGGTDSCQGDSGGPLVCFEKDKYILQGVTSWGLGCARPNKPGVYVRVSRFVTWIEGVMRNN

For orientation: IC50 means the point on the concentration scale where inhibition reaches its midpoint. Low readings indicate greater potency in that assay, high ones weaker potency in that assay. Turning to `CC(C)C[C@H](c1nc2ccc(C(=O)N[C@H](C#N)CCCCN)cc2n1C)N1C(=O)CN(c2ccc(Oc3ccccc3)cc2)C1=O`, the IC50 against Plasminogen worked out at 7.7 µM; in experiment [1], 150 µM.
Take `Cn1c(CN2C(=O)CN(c3ccc(F)cc3)C2=O)nc2ccc(C(=O)N[C@H](C#N)CCCCN)cc21`: in experiment [1], the IC50 was over 200 µM.
With `C[C@H](c1nc2ccc(C(=O)N[C@H](C#N)CCCCN)cc2n1C)N1C(=O)CN(c2ccc(Oc3ccncc3)cc2)C1=O`, the IC50 was 12 µM against Plasminogen and over 200 µM in experiment [1].
As to `C[C@H](c1nc2ccc(C(=O)N[C@H](C#N)CCCCN)cc2n1C)N1C(=O)CN(c2ccc(F)cc2)C1=O`, the IC50 against Plasminogen is 45 µM; in experiment [1] it was over 200 µM.
The corresponding values for `C[C@@H](c1nc2ccc(C(=O)N[C@H](C#N)CCCCN)cc2n1C)N1C(=O)CN(c2ccc(F)cc2)C1=O` are 25 µM and over 200 µM.
Take `C[C@@H](c1nc2ccc(C(=O)N[C@H](C#N)CCCCN)cc2n1C)N1C(=O)CN(c2ccc(Oc3ccccc3)cc2)C1=O`: the results for the concentration for half-maximal inhibition (IC50) (on Plasminogen; in experiment [1]) were 11 µM and over 200 µM, respectively.
For `C[C@H](c1nc2ccc(C(=O)N[C@H](C#N)CCCCN)cc2n1C)N1C(=O)CN(c2ccc(Oc3ccccc3)cc2)C1=O`, in that order: 19 µM and 160 µM.
`CC(C)[C@H](c1nc2ccc(C(=O)N[C@H](C#N)CCCCN)cc2n1C)N1C(=O)CN(c2ccc(Oc3ccccc3)cc2)C1=O`: the IC50 is 4.9 µM against Plasminogen and over 200 µM in experiment [1]. For the same compound, the Ratio IC50 in the experiment listed under Homo sapiens worked out at 40.
On to `C[C@@H](c1nc2ccc(C(=O)N[C@H](C#N)CCCCN)cc2n1C)N1C(=O)CN(c2ccc(Oc3ccncc3)cc2)C1=O`, for which the IC50 against Plasminogen is 19 µM; in experiment [1], over 200 µM.
Consider `CC[C@@H](C)[C@H](c1nc2ccc(C(=O)N[C@H](C#N)CCCCN)cc2n1C)N1C(=O)CN(c2ccc(Oc3ccccc3)cc2)C1=O`, for which the IC50 at Plasminogen was 6.7 µM; in experiment [1] it was over 200 µM.
On to `CC(C)[C@@H](c1nc2ccc(C(=O)N[C@H](C#N)CCCCN)cc2n1C)N1C(=O)CN(c2ccc(Oc3ccccc3)cc2)C1=O`, for which the IC50 against Plasminogen is 28 µM; in experiment [1], over 200 µM.
